Laboratory results: paper PMC12316308, “Interactions of substrates and phosphinyl containing inhibitors with bacterial and human zinc proteases” (PLOS One, 2025)
Values joined by “and” are separate entries in the source; they are usually repeats but may differ in a detail not shown here. Identical values can stand only once. Like-named read-outs stand apart in the source and are kept apart here.

Columns and labels:
[1] = target: T1, human MT1-MMP/MMP-14 (catalytic domain) (Homo sapiens, UniProt P50281); assay: Enzyme inhibition kinetics, fluorogenic substrate ES001; format: biochemical; conditions: for remaining activity at 10 µM: 10 µM inhibitor
T1 construct: human MT1-MMP/MMP-14 (catalytic domain); purchased Calbiochem (San Diego, CA, USA)

[2] = target: T2, APMA activated MMP-9 (MMP-9(A)) (Homo sapiens, UniProt P14780); assay: as above; format: biochemical; conditions: for remaining activity at 10 µM: 10 µM inhibitor
T2 construct: made in house; host or cells: Sf9 and High Five insect cells
Procedure, shortened: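 Recombinant full-length proMMP-9 expressed in insect cells was auto-activated with APMA and titrated with galardin. Activity at 0.05 nM enzyme was measured using 4.0 µM fluorogenic substrate ES001 in 100 µL 0.1 M Hepes pH 7.5 containing 10 mM CaCl2, 0.005% Brij-35 and 1.0% DMSO. Initial rates were followed at 37°C (excitation 320 nm, emission 405 nm) relative to inhibitor-free controls.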

[3] = target: T3, Mag-Trypsin activated MMP-9 (MMP-9(MT)) (Homo sapiens, UniProt P14780); assay: as above; format: biochemical; conditions: for remaining activity at 100 µM: 100 µM inhibitor; for vi/v0: Mag-Trypsin activated recombinant human MMP-9, v0 = average of vi at 10-10 to 10-8 M H2
T3 construct: made in house; host or cells: Sf9 and High Five insect cells

[4] = target: T4, aureolysin (ALN) (Staphylococcus aureus, UniProt P81177); assay: Enzyme inhibition kinetics, fluorogenic substrate ES005; format: biochemical; conditions: for remaining activity at 100 µM: 100 µM inhibitor
T4 construct: purchased BioCentrum Ltd (Kraków, Poland)

[5] = target: T5, pseudolysin (PLN, LasB) (Pseudomonas aeruginosa, UniProt P14756); assay: as above; format: biochemical; conditions: for remaining activity at 100 µM: 100 µM inhibitor
T5 construct: purchased Calbiochem (San Diego, CA, USA)

[6] = target: T6, thermolysin (TLN) (Bacillus thermoproteolyticus, UniProt P00800); assay: as above; format: biochemical; conditions: for remaining activity at 10 µM: log [H2] (M) -5; for remaining activity at 0.1 µM: log [H2] (M) -7; for remaining activity at 0.01 µM: log [H2] (M) -8; for remaining activity at 0.0001 µM: log [H2] (M) -10; for vi/v0 avg (time dependent inhibition, Supplementary Figure S8): Thermolysin, inhibitor 10 µM
T6 construct: purchased Calbiochem (San Diego, CA, USA)
Procedure, shortened: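 Initial rates were read at 37 °C (ex 320/em 405 nm) with 4.0 µM substrate, ES001 for MMP-14 (1.0 nM) and ES005 for PLN (0.5 nM), TLN (0.21 nM), ALN (1.4 nM), in pH 7.5 Hepes, 10 mM CaCl2, 0.005% Brij-35, 1.0% DMSO. Enzymes were preincubated 30 min at room temperature or not; IC50 fitted, Ki from IC50 using Km.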

[7] = target: MMP-9; conditions: previously reported; cited from earlier work
[8] = target: MMP-14; conditions: cited from earlier work
[9] = TLN, log [H2] (M) -4, replicates
[10] = TLN, replicates, read-out: vi/v0 before correction of kurve
[11] = TLN, replicates, read-out: vi/v0 corrected (v0 is the average of log -10 to log -7)

T2 sequence (P14780 107-707 limits assumed): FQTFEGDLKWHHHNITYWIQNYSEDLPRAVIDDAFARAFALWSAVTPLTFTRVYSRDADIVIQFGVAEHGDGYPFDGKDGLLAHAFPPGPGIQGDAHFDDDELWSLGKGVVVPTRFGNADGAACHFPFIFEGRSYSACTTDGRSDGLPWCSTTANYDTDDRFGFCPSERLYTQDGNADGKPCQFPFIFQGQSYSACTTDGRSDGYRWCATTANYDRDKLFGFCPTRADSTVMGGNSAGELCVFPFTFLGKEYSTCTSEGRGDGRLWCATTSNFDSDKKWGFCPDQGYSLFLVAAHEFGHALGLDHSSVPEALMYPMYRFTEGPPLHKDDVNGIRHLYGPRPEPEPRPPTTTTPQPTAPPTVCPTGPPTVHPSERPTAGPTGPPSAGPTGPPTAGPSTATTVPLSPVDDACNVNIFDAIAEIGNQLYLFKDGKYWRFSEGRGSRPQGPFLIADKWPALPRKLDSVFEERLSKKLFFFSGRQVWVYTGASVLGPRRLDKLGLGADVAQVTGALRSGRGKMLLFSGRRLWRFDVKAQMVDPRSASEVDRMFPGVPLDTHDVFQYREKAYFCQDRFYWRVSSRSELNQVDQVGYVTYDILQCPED
T3 sequence (P14780 107-707 limits assumed): as above
T6 sequence (P00800 233-548): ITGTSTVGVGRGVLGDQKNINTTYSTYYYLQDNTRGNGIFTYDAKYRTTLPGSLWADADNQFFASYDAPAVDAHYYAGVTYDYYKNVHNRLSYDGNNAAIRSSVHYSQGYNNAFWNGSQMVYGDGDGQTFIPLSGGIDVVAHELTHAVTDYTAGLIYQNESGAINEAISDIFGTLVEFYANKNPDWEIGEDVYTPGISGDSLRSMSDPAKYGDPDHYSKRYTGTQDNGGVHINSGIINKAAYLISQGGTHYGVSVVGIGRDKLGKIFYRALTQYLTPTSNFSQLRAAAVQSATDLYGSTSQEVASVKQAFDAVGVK
T4 sequence (P81177 209-509): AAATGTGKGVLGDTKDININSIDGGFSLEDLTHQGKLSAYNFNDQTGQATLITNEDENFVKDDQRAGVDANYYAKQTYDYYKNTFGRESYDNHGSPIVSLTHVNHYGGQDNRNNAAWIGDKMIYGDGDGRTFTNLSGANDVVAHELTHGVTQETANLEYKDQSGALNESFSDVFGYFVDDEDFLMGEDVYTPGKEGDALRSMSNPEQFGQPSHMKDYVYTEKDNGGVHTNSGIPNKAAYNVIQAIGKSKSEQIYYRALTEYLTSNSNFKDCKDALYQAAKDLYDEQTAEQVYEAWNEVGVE
T5 sequence (P14756 198-498): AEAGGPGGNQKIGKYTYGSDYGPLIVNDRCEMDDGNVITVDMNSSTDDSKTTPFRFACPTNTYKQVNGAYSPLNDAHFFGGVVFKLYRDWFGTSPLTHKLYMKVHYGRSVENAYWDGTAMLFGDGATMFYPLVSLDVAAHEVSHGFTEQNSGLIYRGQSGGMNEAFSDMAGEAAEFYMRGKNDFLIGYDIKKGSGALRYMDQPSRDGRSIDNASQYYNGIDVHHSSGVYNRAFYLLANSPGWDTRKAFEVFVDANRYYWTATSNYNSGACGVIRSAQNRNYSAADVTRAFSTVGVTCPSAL

In the case of `NC(=O)C(Cc1c[nH]c2ccccc12)NC(=O)C(CCCc1ccccc1)CP(=O)(O)C(Cc1ccccc1)NC(=O)OCc1ccccc1` (centres unmarked) [H-2], the remaining activity at 10 µM ([1]; 0.25 h, MMP-14, 15 min pre incubation, read-out: vi/v0 (single replicate)) is reported as 16.5%, the remaining activity at 10 µM ([1]; 0.25 h, MMP-14, 15 min pre incubation, read-out: vi/v0 avg) is reported as 16% and the remaining activity at 10 µM ([1]; 0.5 h, MMP-14, 30 min pre incubation, read-out: vi/v0 (single replicate)) is reported as 14.6%. It also gave a remaining activity at 10 µM ([1]; 0.5 h, MMP-14, 30 min pre incubation, read-out: vi/v0 avg) of 14.7%, a remaining activity at 10 µM ([1]; MMP-14, no preincubation, read-out: vi/v0 (single replicate)) of 14.5% and a remaining activity at 10 µM ([1]; MMP-14, no preincubation, read-out: vi/v0 avg) of 17.8%. The “inhibitory effect on enzymatic activity” value ([1]; MMP-14, 100 μM compound, in words) was “strong inhibition”, the “vi/v0 Av (bar diagram figure 7)” value ([1]; MMP-14, inhibitor 10 μM, average over 0, 15, 30 min preincubation) was 0.1603 and the “vi/v0 (relative enzyme activity with inhibitor), single determinations” value ([1]; MMP-14, inhibitor 10 μM, preincubation 0 min) was 0.1454 and 0.1797 and 0.2098. For the same compound, the Ki ([1]; read-out: Ki ± s.d. (converted)) was 3000 nM, the remaining activity at 10 µM ([2]; 0.25 h, read-out: vi/v0 (single replicate), rMMP-9 (APMA activated), 15 min pre incubation) was 2.55% and the remaining activity at 10 µM ([2]; 0.25 h, read-out: vi/v0 avg, rMMP-9 (APMA activated), 15 min pre incubation) was 2.28%. The remaining activity at 10 µM ([2]; 0.5 h, read-out: vi/v0 (single replicate), rMMP-9 (APMA activated), 30 min pre incubation) was 1.79%, the remaining activity at 10 µM ([2]; 0.5 h, read-out: vi/v0 avg, rMMP-9 (APMA activated), 30 min pre incubation) was 1.99% and the “inhibitory effect on enzymatic activity” value ([2]; MMP-9(A), 100 μM compound, in words) was “strong inhibition”. The Ki ([2]; MMP-9(A), substrate ES001 4.0 µM, 0.1 M Hepes pH 7.5, 37°C, 1.0% DMSO, Ki from IC50 (Eqn. 3), read-out: Ki ± s.d. (converted)) was 560 nM, the “vi/v0 Av (bar diagram figure 7)” value ([2]; rMMP-9 (APMA activated), inhibitor 10 μM, average over 0, 15, 30 min preincubation) was 0.02111 and the “vi/v0 (relative enzyme activity with inhibitor), single determinations” value ([2]; rMMP-9 (APMA activated), inhibitor 10 μM, preincubation 0 min) was 0.0222 and 0.02292 and 0.01955 and 0.01797. The “vi/v0 (relative enzyme activity with inhibitor), single determinations” value ([2]; rMMP-9 (APMA activated), inhibitor 10 μM, preincubation 15 min) was 0.02548 and 0.02093 and 0.0213 and 0.0234, the “vi/v0 (relative enzyme activity with inhibitor), single determinations” value ([2]; rMMP-9 (APMA activated), inhibitor 10 μM, preincubation 30 min) was 0.01792 and 0.01966 and 0.0206 and 0.02139 and the remaining activity at 10 µM ([2]; read-out: vi/v0 (single replicate), rMMP-9 (APMA activated), no preincubation) was 2.22%. For the same compound, the remaining activity at 10 µM ([2]; read-out: vi/v0 avg, rMMP-9 (APMA activated), no preincubation) was 2.07%, the remaining activity at 100 µM ([3]; 0.25 h, read-out: vi/v0 avg, rMMP-9 (Mag-trypsin activated), 15 min pre incubation) was 1.53% and the remaining activity at 100 µM ([3]; 0.5 h, read-out: vi/v0 (single replicate), rMMP-9 (Mag-trypsin activated), 30 min pre incubation) was 1.66%. The remaining activity at 100 µM ([3]; 0.5 h, read-out: vi/v0 avg, rMMP-9 (Mag-trypsin activated), 30 min pre incubation) was 1.41%, the “inhibitory effect on enzymatic activity” value ([3]; MMP-9(MT), 100 μM compound, in words) was “strong inhibition” and the Ki ([3]; MMP-9(MT), substrate ES001 4.0 µM, 0.1 M Hepes pH 7.5, 37°C, 1.0% DMSO, Ki from IC50 (Eqn. 3), read-out: Ki ± s.d. (converted)) was 530 nM. The vi/v0 ([3]; Log [H2] (M) -4) was 0.01838 and 0.0265 and 0.01864 and 0.01609, the vi/v0 ([3]; Log [H2] (M) -5) was 0.1569 and 0.1424 and 0.1393 and 0.1595 and the vi/v0 ([3]; Log [H2] (M) -6) was 0.5598 and 0.5376 and 0.5583 and 0.5906. The vi/v0 ([3]; Log [H2] (M) -7) was 0.8621 and 0.7854 and 0.9893, the vi/v0 ([3]; Log [H2] (M) -8) was 0.9994 and 0.9899 and 0.9629 and the vi/v0 ([3]; Log [H2] (M) -9) was 0.9775 and 0.9856 and 0.9448. The vi/v0 ([3]; Log [H2] (M) -10) was 1.053 and 1.045 and 1.043, the “vi/v0 Av (bar diagram figure 7)” value ([3]; rMMP-9 (Mag-trypsin activated), inhibitor 100 μM, average over 0, 15, 30 min preincubation) was 0.01565 and the “vi/v0 (relative enzyme activity with inhibitor), single determinations” value ([3]; rMMP-9 (Mag-trypsin activated), inhibitor 100 μM, preincubation 0 min) was 0.01777 and 0.01586 and 0.01778 and 0.01563. The “vi/v0 (relative enzyme activity with inhibitor), single determinations” value ([3]; rMMP-9 (Mag-trypsin activated), inhibitor 100 μM, preincubation 30 min) was 0.01655 and 0.01171, the remaining activity at 100 µM ([3]; read-out: vi/v0 (single replicate), rMMP-9 (Mag-trypsin activated), no preincubation) was 1.78% and the remaining activity at 100 µM ([3]; read-out: vi/v0 avg, rMMP-9 (Mag-trypsin activated), no preincubation) was 1.68%. The Ki [4] was 80000 nM, the remaining activity at 100 µM ([4]; 0.25 h, read-out: vi/v0 (single replicate), Aureolysin, 15 min pre incubation) was 45.5% and the remaining activity at 100 µM ([4]; 0.25 h, read-out: vi/v0 avg, Aureolysin, 15 min pre incubation) was 41.5%. For the same compound, the remaining activity at 100 µM ([4]; 0.5 h, read-out: vi/v0 (single replicate), Aureolysin, 30 min pre incubation) was 39.1%, the remaining activity at 100 µM ([4]; 0.5 h, read-out: vi/v0 avg, Aureolysin, 30 min pre incubation) was 39.4% and the “inhibitory effect on enzymatic activity” value ([4]; ALN, 100 μM compound, in words) was “strong inhibition”. The “vi/v0 Av (bar diagram figure 7)” value ([4]; Aureolysin (ALN), inhibitor 100 μM, average over 0, 15, 30 min preincubation) was 0.4117, the “vi/v0 (relative enzyme activity with inhibitor), single determinations” value ([4]; Aureolysin (ALN), inhibitor 100 μM, preincubation 0 min) was 0.4244 and 0.4426 and 0.4113 and 0.3677 and the “vi/v0 (relative enzyme activity with inhibitor), single determinations” value ([4]; Aureolysin (ALN), inhibitor 100 μM, preincubation 15 min) was 0.4549 and 0.4344 and 0.3957 and 0.4144. The “vi/v0 (relative enzyme activity with inhibitor), single determinations” value ([4]; Aureolysin (ALN), inhibitor 100 μM, preincubation 30 min) was 0.3912 and 0.406 and 0.3859, the remaining activity at 100 µM ([4]; read-out: vi/v0 (single replicate), Aureolysin, no preincubation) was 42.4% and the remaining activity at 100 µM ([4]; read-out: vi/v0 avg, Aureolysin, no preincubation) was 41.1%. The Ki [5] was 40000 nM, the remaining activity at 100 µM ([5]; 0.25 h, read-out: vi/v0 (single replicate), Pseudolysin, 15 min pre incubation) was 29.3% and the remaining activity at 100 µM ([5]; 0.25 h, read-out: vi/v0 avg, Pseudolysin, 15 min pre incubation) was 29.7%. The remaining activity at 100 µM ([5]; 0.5 h, read-out: vi/v0 avg, Pseudolysin, 30 min pre incubation) was 28.3%, the “inhibitory effect on enzymatic activity” value ([5]; PLN, 100 μM compound, in words) was “strong inhibition” and the “vi/v0 Av (bar diagram figure 7)” value ([5]; Pseudolysin (PLN), inhibitor 100 μM, average over 0, 15, 30 min preincubation) was 0.3295. For the same compound, the “vi/v0 (relative enzyme activity with inhibitor), single determinations” value ([5]; Pseudolysin (PLN), inhibitor 100 μM, preincubation 0 min) was 0.3705 and 0.2811 and 0.5391, the “vi/v0 (relative enzyme activity with inhibitor), single determinations” value ([5]; Pseudolysin (PLN), inhibitor 100 μM, preincubation 15 min) was 0.293 and 0.3019 and the remaining activity at 100 µM ([5]; read-out: vi/v0 avg, Pseudolysin, no preincubation) was 39.7%. The “inhibitory effect on enzymatic activity” value ([6]; TLN, 100 μM compound, in words) was “strong inhibition”, the “vi/v0 before correction of kurve” value [6, 9] was 0 and the “vi/v0 corrected (v0 is the average of log -10 to log -7)” value [6, 9] was 0. For the same compound, the remaining activity at 100 µM ([6]; TLN, log [H2] (M) -4, replicates, read-out: vi/v0 before correction of kurve) was 0%, the remaining activity at 100 µM ([6]; TLN, log [H2] (M) -4, replicates, read-out: vi/v0 corrected (v0 is the average of log -10 to log -7)) was 0% and the remaining activity at 10 µM [6, 10] was 28.2%. For the same compound, the remaining activity at 10 µM [6, 11] was 28.1%, the remaining activity at 0.1 µM [6, 10] was 99.7% and the remaining activity at 0.1 µM [6, 11] was 99.5%. It also gave a remaining activity at 0.01 µM [6, 10] of 102%, a remaining activity at 0.01 µM [6, 11] of 102% and a remaining activity at 0.0001 µM [6, 10] of 95%. The remaining activity at 0.0001 µM [6, 11] was 94.8%, the “vi/v0 Av (bar diagram figure 7)” value ([6]; Thermolysin (TLN), inhibitor 10 μM, average over 0, 15, 30 min preincubation) was 0.2888 and the “vi/v0 (relative enzyme activity with inhibitor), single determinations” value ([6]; Thermolysin (TLN), inhibitor 10 μM, preincubation 0 min) was 0.2407 and 0.2992 and 0.3158 and 0.3218. The “vi/v0 avg (time dependent inhibition, Supplementary Figure S8)” value ([6]; 15 min pre incubation) was 0.1753, the “vi/v0 avg (time dependent inhibition, Supplementary Figure S8)” value ([6]; 30 min pre incubation) was 0.294 and the “vi/v0 avg (time dependent inhibition, Supplementary Figure S8)” value ([6]; No preincubation) was 0.2944. For the same compound, the Ki ([6]; read-out: Ki ± s.d.) was 2500 nM, the Ki [7] was 10 nM and the Ki ([8]; RRS enantiomer) was 386 nM. The Ki ([8]; RSS enantiomer) was 90 nM and the Ki ([8]; previously reported) was 40 nM.
